Entries after “also recorded” stand apart in the source; their conditions may differ. Like-named read-outs stand apart in the source and are kept apart here.
Columns and labels:
[1] = tested on: short-term cultured hepatocytes; assay: Cumulative uptake in 3-hr (short-term) cultured hepatocyte monolayers, standard vs Ca2+-free buffer; type: in vitro ADME, rat; details: for cumulative uptake in standard buffer compared to Ca2+-free buffer: 3-hr cultured hepatocytes
Experimental: Hepatocytes were isolated with a two-step perfusion method. Briefly, rats were anesthetized with ketamine and xylazine (60 and 12mg/kg i.p., respectively) prior to portal vein cannulation. The liver was perfused in situ with oxygenated Ca^2+-free Krebs-Henseleit bicarbonate buffer containing collagenase type 1 (0.5 mg/ml) for 10 min. The hepatic capsule was removed with forceps. The hepatocytes were released by shaking the liver gently in 100 ml DMEM.
The released cells were filtered through a sterile nylon mesh (70-μm). The hepatocyte suspensions were centrifuged at 50 xg for 3 min. The cell pellet was resuspended in 25 ml DMEM and an equal volume of 90% isotonic polyvinylpyrrolidone-coated silica colloid centrifugation medium (pH 7.4) sold under the registered trademark PERCOLL® by Pharmacia, Inc. of Piscataway, N.J. The resulting cell suspension was centrifuged at about 70 to about 150 xg for 5 min. The pellet was resuspended in 50 ml DMEM and the cell suspensions were combined into one tube followed by centrifugation at 50 xg for 3 min. Hepatocyte viability was determined by trypan blue exclusion. Only those hepatocyte preparations with viability greater than 90% were utilized for further studies.
Hepatocyte suspensions were prepared with DMEM containing 5% fetal calf serum, 1 μM dexamethasone and 4 mg/L insulin. Hepatocyte suspensions were added to the precoated dishes at a density of about 2-3×10^6 cells/60-mm dish. Approximately 1 hr after plating the cells, the medium was aspirated and 3-ml fresh DMEM was added. For transport studies, hepatocytes that had been seeded for 3-5 hr without collagen overlay were defined as 3-hr or short-term cultured hepatocytes.
(§1) Hepatocytes cultured in a collagen-sandwich configuration were incubated in 3 ml standard buffer or Ca^2+-free buffer at 37° C. for 10 min. After removing the incubation buffer, uptake was initiated by addition of 3 ml standard buffer containing substrate to each dish. After incubation for designated times, cumulative uptake was terminated by aspirating the incubation solution and rinsing 4 times with 3 ml ice-cold standard buffer to remove extracellular substrate. After washing, 2 ml of 1% Triton X-100 solution was added to culture dishes, and the cells were lysed by shaking the dish on a shaker for 20 min at room temperature. An aliquot (1 ml) of lysate was analyzed by liquid scintillation spectrometry. Bio-Rad DC Protein Assay Kit (Bio-Rad Laboratories, Hercules, Calif.) was used to determine the protein concentration in the culture extracts using bovine serum albumin as standard. […] All values for substrate uptake into cell monolayers were corrected for nonspecific binding to the collagen by subtracting the substrate uptake determined in the appropriate control dishes in the absence of cells as described previously.
(§2) Uptake data were normalized to the protein content and expressed as mean±SD from 3-4 separate preparations of hepatocytes. Statistical differences between mean values for the 10-min cumulative substrate uptake in the presence and absence of Ca^2+ were determined by the use of the well-known Student's t-test. A P value of <0.05 was considered significant.

[2] = tested on: sandwich-cultured hepatocytes; assay: Cumulative uptake, Biliary Excretion Index and in vitro biliary clearance in 96-hr sandwich-cultured hepatocytes; type: in vitro ADME, rat; details: for Biliary Excretion Index: Equation 3; for cumulative uptake in standard buffer compared to Ca2+-free buffer: 96-hr cultured hepatocytes
Experimental: To prepare sandwich-cultured hepatocytes, neutralized collagen solution (0.1 ml, about 1.5 to about 3.0 mg/ml, pH 7.4) was added to the monolayers 24 hr after the cells were seeded. […] Medium was changed on a daily basis until the fourth day after the cells were seeded. These hepatocytes were referred to as 96-hr or long-term cultured hepatocytes.
as §1, §2
Biliary excretion of substrates in the monolayers was quantitatively assessed by the Biliary Excretion Index based on Equation 3:
[formula] where Uptakestandard and Uptake Ca^2+-free represent the cumulative uptake of substrate over a 10-min interval in the hepatocyte monolayers pre-incubated in standard buffer and in Ca^2+-free buffer, respectively.
Biliary clearance in the sandwich-cultured hepatocytes, ClB(culture) (ml/min/kg per body weight), was calculated according to Equation 4:
[formula] where Timeincubation was 10 min and Concentrationmedium represented the initial substrate concentration in the incubation medium. In some embodiments, a biliary clearance value can be calculated as the ratio of the mass in the bile canaliculi and the area under the curve (AUC) in culture medium, wherein the AUC represents the integral of candidate compound (e.g. xenobiotic concentration) in the medium from time 0 to time T (time can be measure in any desired units, and is usually measured in minutes). Indeed, the term AUC can refer to the following equation: […]

[3] = cited from earlier work; for percentage of the dose excreted in rat bile: i.v. administration, in 1 hr, unchanged drug; for in vivo biliary clearance: rat, literature values
[4] = In vivo biliary excretion and biliary clearance in rats (literature data, Equations 1 and 2); details: rat
Experimental: In vivo biliary clearance, ClB (ml/min/kg body weight), was calculated according to Equation 1:
[formula] where Amountbile(O-T) represents the amount of parent drug recovered in bile from 0 to time T when most drug was eliminated from the systemic circulation, and AUCO-T represents the area under the plasma concentration-time curve from 0 to time T (in minutes).
The in vivo intrinsic biliary clearance (ClBin, ml/min/kg body weight) was estimated according to Equation 2 based on the well-stirred model of hepatic disposition assuming biliary excretion is the predominant elimination pathway (Pang et al., J. Pharmacokinet. Biopharm. 5:625-653, 1977).
[formula] where Q represents rat hepatic plasma/blood flow, 40-70 ml/min/kg of body weight {(blood flow×(1-hematocrit)}; Pollack et al., J. Pharmacol. Exp. Ther. 18:197-202, (1989), and ClB represents biliary clearance for model compounds reported in the literature or calculated from Equation 1.
The five model substrates representing a diverse spectrum of biliary excretion properties were selected to examine the relationship between the percentage of the dose excreted in bile in vivo in rats and the Biliary Excretion Index in sandwich-cultured hepatocytes. Information regarding the percentage of the dose excreted in rat bile after i.v. administration was obtained from the literature.

Mrp2 = assay: Immunoblot analysis of Mrp2 expression in siRNA-treated SCRH; type: cell-based, rat; details: 2 μg siRNA per well, 48 hr; for reduction in endogenous Mrp2 expression: vs siFL or non-transfected SCRH, average
Experimental: (§3) HepG2 cells were maintained in Dulbecco's modified Eagle's medium/F-12 plus 10% FBS. Rat hepatocytes were isolated from male Wistar rats (220-300g) by in situ collagenase perfusion (Annaert et al., Drug Metab Dispos 29:1277-1283, 2001). Cells were seeded at a density of 1.5×10^6 cells per well onto polystyrene 6-well plates pre-coated with rat tail type I collagen; a top layer of gelled collagen was overlaid 24 hr after plating. Rat hepatocyte cultures were maintained in Dulbecco's modified Eagle's medium supplemented with 0.1 μM dexamethasone and 0.1% ITS culture supplement (6.25 mg/mL insulin, 6.25 mg/mL transferrin, 6.25 μg/mL selenous acid, 5.35 mg/mL linoleic acid, and […]). Medium was changed every 24 hr.
(§4) HepG2 cells were seeded at a density of 2×10^5 cells per well onto 12-well plates 24 hr before transfection. A mixture of 100 ng firefly luciferase expression plasmid (PGL3-FL) and 100 ng Renilla luciferase expression plasmid (PRL-TK) and various amounts of firefly luciferase siRNA were used per well. Transfections of SCRH were performed at 20 hr after plating, unless specifically indicated. siRNA (2 μg unless specified) was used per well in 6-well plates. siRNA and DNA were formulated for transfection using […]™ transfection reaction kit (QIAGEN Inc. Valencia, Calif. USA). Briefly, siRNA was condensed in Enhancer EC at a ratio of 1:2 (μg of total RNA and/or DNA : μl of Enhancer), and formulated with TransMessenger at a ratio of 1:4 (μg of RNA and /or DNA: μl of TransMessenger) and then incubated with cells. For transfections of HepG2 cells, medium was changed after an overnight incubation with siRNA. For transfections of SCRH, cells were incubated with siRNA for 4 hr and then were overlaid with collagen. siRNA delivery into hepatocytes was more efficient before overlay of the top collagen layer. The effect of transfection was examined 48 hr later.
(§5) Cells were harvested 48 hr post transfection and lysed in 1% SDS, 1 mM EDTA plus COMPLETE™ protease inhibitor cocktail (Roche Diagnostics, Mannheim, Germany). The protein concentration of the clear cell lysate was determined with the BCA Protein Assay Reagent Kit (Pierce Biotech, Inc. Rockford, Ill.). […] of total protein per lane was resolved by electrophoresis on NuPAGE 4-12% Bis-Tris Gel (Invitrogen Life Technology, Carlsbad, Calif. USA) and were transferred onto polyvinylidone difluoride membranes. The following antibodies were used to probe the membranes: anti-Mrp2 (M2111-6, Alexis Biochemicals, San Diego, Calif. USA); anti-Mrp3 (kind gift from Dr. Yuichi Sugiyama); anti-Radixin (Chemicon International, Inc. Temecula, Calif. USA), anti-β-actin (MAB1501, Chemicon).

Mrp3 = assay: Immunoblot analysis of Mrp3 expression in siRNA-treated SCRH; type: cell-based, rat; details: immunoblot
Experimental: as §3, §4, §5

radixin = assay: Immunoblot analysis of radixin expression in siRNA-treated SCRH; type: cell-based, rat
Experimental: as §3
as §4, with “For transfections of SCRH, cells were incubated with siRNA for 4 hr and then were overlaid with collagen. siRNA delivery into hepatocytes was more efficient before overlay of the top collagen layer. The effect of transfection was examined 48 hr later.” left out
Cells were harvested 48 hr post transfection and lysed in 1% SDS, 1 mM EDTA plus COMPLETE™ protease inhibitor cocktail (Roche Diagnostics, Mannheim, Germany). The protein concentration of the clear cell lysate was determined with the BCA Protein Assay Reagent Kit (Pierce Biotech, Inc. Rockford, Ill.). […]

[5] = 96-hr sandwich-cultured hepatocytes, 10-min cumulative uptake

**Q.** Which “cumulative uptake (of initial added substrate)” value ([1]; short-term cultured hepatocytes, all incubation times, 1 μM) does the source give for inulin here?
**A.** less than 0.01%

**Q.** What about the “Biliary Excretion Index” value [2, 5] of the same compound?
**A.** approximately zero; also recorded: negligible

**Q.** And the “cumulative uptake (of initial added substrate)” value ([2]; long-term cultured hepatocytes, all incubation times, 1 μM)?
**A.** less than 0.01%

**Q.** What about the “percentage of the dose excreted in rat bile” value (“percentage” below) [3] of the same compound?
**A.** negligible

**Q.** With `CC1(C)SSC(C)(C)[C@@H](NC(=O)[C@@H](N)Cc2ccc(O)cc2)C(=O)NCC(=O)N[C@@H](Cc2ccccc2)C(=O)N[C@H]1C(=O)O` [[D-pen^2,5]enkephalin] as the compound, how does the “cumulative uptake in standard buffer compared to Ca2+-free buffer” value [1] read?
**A.** not significantly different

**Q.** And the “cumulative uptake in standard buffer compared to Ca2+-free buffer” value [2]?
**A.** significantly higher

**Q.** What about the clearance ([4]; in vivo biliary clearance, calculated by Equation 1 from data of Chen and Pollack) of the same compound?
**A.** 18.5 mL/min/kg

**Q.** What about the clearance ([4]; in vivo intrinsic biliary clearance, calculated from Equation 2 (well-stirred model)) of the same compound?
**A.** ~34.4 mL/min/kg

**Q.** For “siMrp2AB1: siRNA targeting rat Mrp2, GGCUAUAUCUGUGCAAUCCUA (SEQ ID NO: 3), nucleotides 1158-1178 of Mrp2 cDNA (listed as RNA, chemistry not given here)”, which “maximum reduction in endogenous Mrp2 expression” value (Mrp2) is on record?
**A.** 79%

**Q.** What about the “reduction in endogenous Mrp2 expression” value (Mrp2) of the same compound?
**A.** 50%

**Q.** What about the “expression level of Mrp3” value (Mrp3) of the same compound?
**A.** 89±11 % non-transfected control

**Q.** What about the radixin expression level (radixin) of the same compound?
**A.** 95±17 % non-transfected control

**Q.** Which results are given for “siMrp2AB2: siRNA targeting rat Mrp2, GGCUAGGAAGCAGUACACCAU (SEQ ID NO: 4) (listed as RNA, chemistry not given here)”?
**A.** reduction in endogenous Mrp2 expression (Mrp2): 40±20%; expression level of Mrp3 (Mrp3): 96±15 % non-transfected control; radixin expression level (radixin): 100±8 % non-transfected control

**Q.** Which “cumulative uptake in standard buffer compared to Ca2+-free buffer” value [1] does the source give for `CN(Cc1cnc2nc(N)nc(N)c2n1)c1ccc(C(=O)N[C@@H](CCC(=O)O)C(=O)O)cc1` [methotrexate] here?
**A.** not significantly different

**Q.** What about the “cumulative uptake in standard buffer compared to Ca2+-free buffer” value [2] of the same compound?
**A.** significantly higher

**Q.** And the “in vitro biliary clearance” value ([2]; 96-hr sandwich-cultured hepatocytes, 10-min cumulative uptake, Equation 4)?
**A.** 4.1 ± 1.0 mL/min/kg

**Q.** And the clearance ([4]; in vivo intrinsic biliary clearance)?
**A.** ~17.3 mL/min/kg

**Q.** And the “percentage” value [3]?
**A.** 50-60%

**Q.** What about the “percentage” value ([3]; listed as Methotrexate) of the same compound?
**A.** approximately 60%

**Q.** What about the “in vivo biliary clearance” value [3] of the same compound?
**A.** 12.1 ml/min per kg body weight

**Q.** For `O=C(O)c1ccccc1O` [salicylate], which “cumulative uptake in standard buffer compared to Ca2+-free buffer” value [1] is on record?
**A.** not significantly different

**Q.** What about the “cumulative uptake in standard buffer compared to Ca2+-free buffer” value [2] of the same compound?
**A.** no effect

**Q.** And the “Biliary Excretion Index” value [2, 5]?
**A.** approximately zero; also recorded: negligible

**Q.** What about the “percentage” value [3] of the same compound?
**A.** negligible

**Q.** And the “in vivo biliary clearance” value [3]?
**A.** ~0 ml/min per kg body weight

**Q.** For “siMrp2AB3: siRNA targeting rat Mrp2, GGCAGUAGGGUGGUGGUCCAU (SEQ ID NO: 5) (listed as RNA, chemistry not given here)”, which “reduction in endogenous Mrp2 expression” value (Mrp2) is on record?
**A.** 26±18%

**Q.** What about the “expression level of Mrp3” value (Mrp3) of the same compound?
**A.** 86±11 % non-transfected control

**Q.** And the radixin expression level (radixin)?
**A.** 103±7 % non-transfected control
